# Measurements: patent publication US9663561B2, “Methods of treatment of cancer using SRC-modulating peptides” (The University of Toledo, priority 2006, dated 2017)
# Legend:
# PY-17 cells = experiment: FAK Tyr925 phosphorylation in α1 knockdown cells; type: cell-based, pig; conditions: 1 μM PP2 for 0.5 and 2 h
# Protocol: FIG. 17D. P-11 and PY-17 cells were treated with 1 μM PP2 for 0.5 and 2 h. FAK and Src activation was measured by using the specific antibodies. A representative Western blot is shown, and the same experiments were repeated three times.
# (§1) Cells were washed with PBS, solubilized in modified ice-cold radioimmune precipitation assay buffer, and subjected to immunoprecipitation or Western blot analysis. Protein signal was detected using the enhanced chemiluminescence kit and quantified using a Bio-Rad GS-670 imaging densitometer.
# SYF and SYF+Src cells = experiment: Protein tyrosine phosphorylation in SYF and SYF+Src cells; type: cell-based, mouse; conditions: SYF+Src cells
# Protocol: FIG. 9B. Both SYF and SYF+Src cells were treated with 100 μM ouabain for 5 min and analyzed as in A. Representative Western blots of three experiments are shown in both A and B.
# (§2) Cells were lysed in RIPA buffer containing 1% Nonidet P40, 0.25% sodium deoxycholate, 150 mM NaCl, 1 mM EDTA, 1 mM phenylmethylsulfonyl fluoride, 1 mM sodium orthovanadate, 1 mM NaF, 10 μg/ml aprotinin, 10 μg/mlleupeptin, and 50 mM Tris-HCl (pH 7.4). Cell lysates were cleared by centrifugation at 16,000×g for […], and the supernatants (1 mg) were either immunoprecipitated with anti-α1 antibody or incubated with different GST-fusion proteins. The complexes were then pulled down by either protein G agarose or glutathione beads (Ma et al., 2000; Haas et al., 2002) and analyzed by Western blot.
# LLC-PK1 cells [1] = experiment: Recruitment of Src to the Na+/K+-ATPase signaling complex (co-immunoprecipitation); type: cell-based, pig; conditions: 1 μM pretreatment 15 min, then 1 μM ouabain 5 min
# Protocol: FIG. 9C Inhibition of Src blocks ouabain-induced recruitment of Src to the Na+/K+-ATPase signaling complex. LLC-PK1 cells were pretreated with 1 μM PP2 or PP3 for 15 min and then exposed to 1 μM ouabain for 5 min. Cell lysates were immunoprecipitated and analyzed. Values are mean±SE of at least four independent experiments. * p<0.05.
# as §2
# LLC-PK1 cells [2] = experiment: Sensitivity of LLC-PK1-derived cells to selection agents; type: cell-based, pig
# Protocol: Another batch of cells was co-transfected with pEYFP together with the pSuppressor-A4 siRNA and pBade-puro so that the co-expressed EYFP could be used as a marker to pick clones. Empty vector (pSuppressor) or A1 siRNA-transfected cells were co-selected and used as a control. The cells were selected with puromycin (1 μg/ml) 24 h posttransfection. Puromycin-resistant colonies were cloned and expanded. To rescue the Na+/K+-ATPase knockdown cells, cells were transfected with the pRc/CMV-α1AACm1. Selection was initiated with 3 μM ouabain because untransfected cells were very sensitive to ouabain. After about 1 week, ouabain-resistant colonies were isolated and expanded into stable cell lines in the absence of ouabain. G418 was not used because these cells are resistant to it, requiring more than 3 mg/ml to kill the untransfected cells.
# [3] = molecular target: T1, Na+/K+-ATPase/Src complex (Sus scrofa, UniProt P05024); experiment: Src pY418 phosphorylation of the Na+/K+-ATPase/Src complex (Western blot); type: biochemical
# T1 construct: Na+/K+-ATPase was purified from pig kidney outer medulla using the Jorgensen method; tissue Upstate Biotechnology (Src only); host or cells: pig kidney outer medulla (Na+/K+-ATPase)
# Protocol: (§3) The Src kinase activity was assayed using a commercial kit (Haas et al., 2000). To determine how Na+/K+-ATPase affects Src kinase activity, the purified Src (4.5 U) was incubated with 5 μg of the purified Na+/K+-ATPase in the Src assay buffer for 30 min at room temperature. Afterward, both control Src or the Na+/K+-ATPase-bound Src were exposed to 10 μM ouabain and Src kinase activity was determined. In other experiments, the Src pY418 was measured by anti-pY418 antibody to indicate Src activation (Ma et al., 2000). To do so, the purified Src (4.5 U) was incubated with different amounts of the purified Na+/K+-ATPase or GST-Na+/K+ATPase constructs in phosphate-buffered saline (PBS) for 30 min at 37° C. Afterward, 2 mM ATP/Mg2+ was added. The reaction continued for 5 min at 37° C. and was stopped by addition of SDS sample buffer.
# (§4) The purified Na+/K+-ATPase was solubilized in 1% Triton X-100 PBS and centrifuged at 100,000×g for 30 min. The supernatant was collected for the binding assay. GST-fusion proteins (5 μg) were conjugated on glutathione beads and incubated with the solubilized Na+/K+-ATPase in 500 μl PBS in the presence of 0.5% Triton X-100 at room temperature for 30 min. The beads were washed with the same buffer for four times. The bound Na+/K+ATPase was resolved on 10% SDS-PAGE and detected by Western blot. Reciprocal binding assay using GST-Na+/K+-ATPase constructs (5 μg) and purified Src lacking of first 85 amino acids (200 ng) or His-tagged Src constructs (100 ng) was done similarly. To test if native Na+/K+-ATPase binds Src, the above experiments were repeated in the absence of Triton X-100. To make the Na+/K+-ATPase/Src complex, 2-5 μg of the purified Na+/K+ATPase was incubated with 4.5 U of Src (˜10 ng) in PBS in the absence of Triton X-100 at room temperature for 30 min. The complex was either used for the experiments directly as indicated or collected by centrifugation at 100,000×g for 30 min.
# [4] = molecular target: T2, purified pig kidney Na+/K+-ATPase (Sus scrofa, UniProt P05024); experiment: ATPase activity of purified pig kidney Na+/K+-ATPase; type: biochemical
# T2 construct: Na+/K+-ATPase was purified from pig kidney outer medulla using the Jorgensen method; from tissue; host or cells: pig kidney outer medulla
# Text: Src, without the first 85 amino acid residues, was purified from sf-9 cells as described (Ma et al., 2000) and used in the initial binding assays to ensure that Src binds to the Na+/K+-ATPase, but not the lipid composition in the purified Na+/K+-ATPase preparation. In subsequent experiments (e.g., phosphorylation and activity assays), purified recombinant full-length Src from Upstate Biotechnology was used. Na+/K+-ATPase was purified from pig kidney outer medulla using the Jorgensen method (Xie et al., 1996) and the preparations with specific activities between 1200 and 1400 μmol Pi/mg/h were used.
# GST fusion proteins or His-tagged proteins were expressed in Escherichia coli BL21 and purified on glutathione beads or nickel column.
# Src [5] = molecular target: T3, Src (Sus scrofa, UniProt K7GM45); experiment: Src pY418 in LLC-PK1 cells transiently transfected with YFP-tagged constructs; type: cell-based, pig; conditions: transient transfection 24 h
# T3 construct: endogenous in cells; host or cells: LLC-PK1 (pig kidney)
# Protocol: FIG. 22A. LLC-PK1 cells were transient-transfected with YFP-tagged ND1, ND, and CD3 for 24 h.
# Cells were then lysed in RIPA buffer and probed for pY418. YFP were also transient-transfected into LLC-PK1 cells as control.
# Src [6] = molecular target: T4, Src (Gallus gallus, UniProt P00523); experiment: In vitro binding assay of GST-Na+/K+-ATPase constructs with purified or His-tagged Src; parameters: species or system chicken; conditions: purified Src lacking first 84 amino acids, 200 ng
# T4 construct: His; made in house; host or cells: sf-9 cells (Src without the first 85 residues); Escherichia coli BL21 (His-tagged constructs)
# Protocol: (§5) The preparation of chicken c-Src lacking the SH4 domain and GST-Src mutants were done (Ma et al., 2000). GST-NT (amino acid residue 6-90) [SEQ ID NO: 51], GST-CD2 (amino acid residue 152-288) [SEQ ID NO 52], and GST-CD3 (amino acid residue 350-785) [SEQ ID NO: 53] expression vectors were constructed based on the sequence of pig kidney Na+/K+-ATPase α1 subunit (see FIG. 3A).
# as §4
# Src [7] = experiment: as above; parameters: species or system chicken
# Protocol: as §5, §4
# Src [8] = molecular target: T5, Src (Homo sapiens, UniProt P12931); experiment: Src pY418 autophosphorylation / activity of purified recombinant Src; type: biochemical; conditions: recombinant Src (4.5 U) incubated 30 min, then 2 mM ATP/Mg2+ 5 min
# T5 construct: purified recombinant full-length Src from Upstate Biotechnology was used; purchased Upstate Biotechnology (Lake Placid, N.Y.)
# Protocol: as §3
# The reaction was stopped by adding 5× loading buffer. pY418 was probed to measure Src activation.
# Src [9] = molecular target: T3, Src; experiment: GST-CD3 pulldown of Src from LLC-PK1 cell lysates; type: binding, pig; conditions: 1 mg LLC-PK1 cell lysates
# Protocol: FIG. 4C. A Western blot showing that Src was pulled down by GST-CD3 of Na+/K+-ATPase (Na/K) and H+/K+-ATPase (H/K), but not SERCA from 1 mg LLC-PK1 cell lysates.
# as §2
# purified Na+/K+-ATPase = molecular target: T6, purified Na+/K+-ATPase (Sus scrofa, UniProt P05024); experiment: In vitro GST pulldown binding assay with purified Na+/K+-ATPase; parameters: species or system pig; conditions: GST-tagged Src truncations and purified Na+/K+-ATPase
# T6 construct: Na+/K+-ATPase was purified from pig kidney outer medulla using the Jorgensen method; from tissue; host or cells: pig kidney outer medulla
# Protocol: as §4
# Src and ERK1/2 = experiment: Activation of Src and ERK1/2 in P-11, A4-11, PY-17 and AAC-19 cells (Western blot); type: cell-based, pig; conditions: for increase in SrcTyr(P)418: n=3
# Protocol: FIGS. 18A and 18B. Cells were exposed to 100 nM ouabain for either 5 or 15 min, and the cell lysates (50 μg/lane) were analyzed by Western blot for active Src or active ERK1/2. Blots were probed first with anti-Tyr(P)^418-Src or anti-pERK antibody, then stripped, and reprobed for total Src or ERK1/2 to ensure equal loading.
# FIGS. 18 C and 18D. Cells were treated with indicated concentrations of ouabain for 5 min, and total cell lysates were analyzed for Tyr(P)^418-Src and total Src or pERK1/2 and total ERK1/2 as in FIGS. 18A and 18B. A representative Western blot and combined quantitative data are shown. The quantitative data (relative ratio of pSrc/Src or pERK/ERK) from three independent experiments (mean±S.E.) were calculated relative to the control condition of P-11 cells. *, p<0.05 versus the respective control condition of each cell line. con, control.
# as §1
molecule,measurement,setting,value
CC(C)(C)n1nc(-c2ccc(Cl)cc2)c2c(N)ncnc21 [PP2],increase in FAK Tyr(P)925 in knockdown cells,PY-17 cells,sensitive
same,block of ouabain-induced protein tyrosine phosphorylation,SYF and SYF+Src cells,able to block
Nc1ncnc2c1cnn2-c1ccccc1 [PP3],block of ouabain-induced recruitment of Src to the Na+/K+-ATPase,LLC-PK1 cells [1],failed to block
"CN[C@@H]1[C@@H](O)[C@@H](O[C@@H]2[C@@H](O)[C@H](O[C@H]3O[C@H]([C@@H](C)O)[C@@H](O)[C@H](O)[C@H]3N)[C@@H](N)C[C@H]2N)OC[C@]1(C)O [Peptide G418, G418]",concentration required to kill the untransfected cells,LLC-PK1 cells [2]; untransfected cells,more than 3 mg/ml
CN(CC[C@H](N)CC(=O)N[C@H]1C=C[C@H](n2ccc(N)nc2=O)O[C@@H]1C(=O)O)C(=N)N [blasticidin],sensitivity of knockdown cells,LLC-PK1 cells [2]; 15 μg/ml,sensitive to blasticidin
[O]=[V]([O-])([O-])[O-] [vanadate],Src pY418 of Na+/K+-ATPase/Src complex,[3]; 10-100 μM vanadate,no effect on Src pY418
same,inhibition of the ATPase activity,[4]; 100 μM vanadate,complete inhibition
same,inhibition of the ATPase activity,[4]; 10-100 μM vanadate,completely inhibited the ATPase activity
CD3: YFP-tagged cytosolic domain 3 of Na+/K+-ATPase α1,Src phosphorylation (pY418) in LLC-PK1 cells,Src [5],decrease Src phosphorylation
GST-CD2: GST fusion of pig kidney Na+/K+-ATPase α1 amino acid residue 152-288,interaction with Src,Src [6],interacted
same,interaction with His-tagged SH3SH2 domain of Src,Src [7],interacted with the SH3SH2 domain
same,interaction with His-tagged kinase domain of Src,Src [7],not the kinase domain
GST-CD3: GST fusion of pig kidney Na+/K+-ATPase α1 amino acid residue 350-785,interaction with Src,Src [6],interacted
same,interaction with His-tagged SH3SH2 domain of Src,Src [7],not the SH3SH2 domain
same,interaction with His-tagged kinase domain of Src,Src [7],interacted with the kinase domain
same,Src pY418 (autophosphorylation at Tyr418),Src [8],dose-dependent inhibition
same,pulldown of Src from LLC-PK1 cell lysates,Src [9],pulled down
GST-H+/K+-CD3: GST fusion of the CD3 from rat gastric H+/K+-ATPase,pulldown of Src from LLC-PK1 cell lysates,Src [9],pulled down Src
LRLEVKLGQGCFGEVWMGTWNGTTRVAIKTLKPGTMSPEAFLQEAQVMKKLRHE [KD1],binding to Na+/K+-ATPase,purified Na+/K+-ATPase,binds Na+/K+-ATPase
same,activation of Na+/K+-ATPase-inhibited Src,[3]; competing the binding motif for Src,effective in activating the Na+/K+-ATPase-inhibited Src
epidermal growth factor: epidermal growth factor,increase in SrcTyr(P)418,Src and ERK1/2; P-11 cells,2.5±0.3 fold
same,stimulation of ERK1/2,Src and ERK1/2; PY-17 cells,able to stimulate ERK1/2
same,increase in SrcTyr(P)418,Src and ERK1/2; PY-17 cells,1.7±0.2 fold
